Data taken from patent publication US10206394B2, “Herbicidal compounds” (Syngenta Participations AG, priority 2014, dated 2019).
Like-named read-outs stand apart in the source and are kept apart here.

Columns and labels:
Assay in all cases: Glasshouse assay for herbicidal activity (pre- and post-emergence), percentage phytotoxicity
Format in all cases: in vivo
[1] = system: Alopecurus myosuroides (ALOMY); settings: Alopecurus myosuroides
Method: (§1) Test—Glasshouse Assay for Herbicidal Activity
(§2) Seeds of a variety of monocotyledonous and dicotyledonous test plants are sown in standard soil in pots. The plants are cultivated for one day (for pre-emergence (PRE)) or for about 12 days (for post-emergence (POST)) under controlled conditions in a glasshouse (warm climate species at 24/18° C., cool climate species at 20/16° C., both at day/night; 16 hours light; 65% humidity).
(§3) The test plants are then grown on, in a glasshouse (greenhouse) under controlled conditions (warm climate species at 24/18° C., cool climate species at 20/16° C., both at day/night; 16 hours light; 65% humidity) and are watered twice daily. 15 days after application of the test herbicide (15 DAA) (for post-emergence), and 20 days after application of the test herbicide (20 DAA) (for pre-emergence), the test plants are evaluated visually, and an assessed percentage phytotoxicity score is given for each herbicidal application on each plant species (with 100%=total damage to plant; 0%=no damage to plant).
(§4) The plant species tested are as follows: Alopecurus myosuroides (ALOMY), Avena fatua (AVEFA), Lolium perenne (LOLPE), Echinochloa crus-galli (ECHCG).

[2] = system: Avena fatua (AVEFA); settings: Avena fatua
Method: as §1, §2, §3, §4

[3] = system: Echinochloa crus-galli (ECHCG); settings: Echinochloa crus-galli
Method: as §1, §2, §3, §4

[4] = system: Lolium perenne (LOLPE); settings: Lolium perenne
Method: as §1, §2, §3, §4

[5] = post-emergence, 360 h, Rate 250 g/ha, post-emergence, assessed visually 15 DAA, 100%=total damage, 0%=no damage, read-out: Post-emergence herbicidal activity (percentage phytotoxicity) ALOMY POST
[6] = pre-emergence, 480 h, Rate 250 g/ha, pre-emergence, assessed visually 20 DAA, 100%=total damage, 0%=no damage, read-out: Pre-emergence herbicidal activity (percentage phytotoxicity) ALOMY PRE
[7] = post-emergence, 360 h, Rate 250 g/ha, post-emergence, assessed visually 15 DAA, 100%=total damage, 0%=no damage, read-out: Post-emergence herbicidal activity (percentage phytotoxicity) AVEFA POST
[8] = pre-emergence, 480 h, Rate 250 g/ha, pre-emergence, assessed visually 20 DAA, 100%=total damage, 0%=no damage, read-out: Pre-emergence herbicidal activity (percentage phytotoxicity) AVEFA PRE
[9] = post-emergence, 360 h, Rate 250 g/ha, post-emergence, assessed visually 15 DAA, 100%=total damage, 0%=no damage, read-out: Post-emergence herbicidal activity (percentage phytotoxicity) ECHCG POST
[10] = pre-emergence, 480 h, Rate 250 g/ha, pre-emergence, assessed visually 20 DAA, 100%=total damage, 0%=no damage, read-out: Pre-emergence herbicidal activity (percentage phytotoxicity) ECHCG PRE
[11] = post-emergence, 360 h, Rate 250 g/ha, post-emergence, assessed visually 15 DAA, 100%=total damage, 0%=no damage, read-out: Post-emergence herbicidal activity (percentage phytotoxicity) LOLPE POST
[12] = pre-emergence, 480 h, Rate 250 g/ha, pre-emergence, assessed visually 20 DAA, 100%=total damage, 0%=no damage, read-out: Pre-emergence herbicidal activity (percentage phytotoxicity) LOLPE PRE
[13] = post-emergence, 360 h, post-emergence, 250 g/ha, 15 DAA, visual score (100%=total damage; 0%=no damage), read-out: ALOMY POST herbicidal activity (percentage phytotoxicity)
[14] = pre-emergence, 480 h, pre-emergence, 250 g/ha, 20 DAA, visual score (100%=total damage; 0%=no damage), read-out: ALOMY PRE herbicidal activity (percentage phytotoxicity)
[15] = post-emergence, 360 h, post-emergence, 250 g/ha, 15 DAA, visual score (100%=total damage; 0%=no damage), read-out: AVEFA POST herbicidal activity (percentage phytotoxicity)
[16] = pre-emergence, 480 h, pre-emergence, 250 g/ha, 20 DAA, visual score (100%=total damage; 0%=no damage), read-out: AVEFA PRE herbicidal activity (percentage phytotoxicity)
[17] = post-emergence, 360 h, post-emergence, 250 g/ha, 15 DAA, visual score (100%=total damage; 0%=no damage), read-out: ECHCG POST herbicidal activity (percentage phytotoxicity)
[18] = pre-emergence, 480 h, pre-emergence, 250 g/ha, 20 DAA, visual score (100%=total damage; 0%=no damage), read-out: ECHCG PRE herbicidal activity (percentage phytotoxicity)
[19] = post-emergence, 360 h, post-emergence, 250 g/ha, 15 DAA, visual score (100%=total damage; 0%=no damage), read-out: LOLPE POST herbicidal activity (percentage phytotoxicity)
[20] = pre-emergence, 480 h, pre-emergence, 250 g/ha, 20 DAA, visual score (100%=total damage; 0%=no damage), read-out: LOLPE PRE herbicidal activity (percentage phytotoxicity)
[21] = post-emergence, 360 h, 250 g/ha, post-emergence, 15 DAA, visual assessment (100%=total damage, 0%=no damage), read-out: Post-emergence herbicidal activity (percentage phytotoxicity) ALOMY POST
[22] = pre-emergence, 480 h, 250 g/ha, pre-emergence, 20 DAA, visual assessment (100%=total damage, 0%=no damage), read-out: Pre-emergence herbicidal activity (percentage phytotoxicity) ALOMY PRE
[23] = post-emergence, 360 h, 250 g/ha, post-emergence, 15 DAA, visual assessment (100%=total damage, 0%=no damage), read-out: Post-emergence herbicidal activity (percentage phytotoxicity) AVEFA POST
[24] = pre-emergence, 480 h, 250 g/ha, pre-emergence, 20 DAA, visual assessment (100%=total damage, 0%=no damage), read-out: Pre-emergence herbicidal activity (percentage phytotoxicity) AVEFA PRE
[25] = post-emergence, 360 h, 250 g/ha, post-emergence, 15 DAA, visual assessment (100%=total damage, 0%=no damage), read-out: Post-emergence herbicidal activity (percentage phytotoxicity) ECHCG POST
[26] = pre-emergence, 480 h, 250 g/ha, pre-emergence, 20 DAA, visual assessment (100%=total damage, 0%=no damage), read-out: Pre-emergence herbicidal activity (percentage phytotoxicity) ECHCG PRE
[27] = post-emergence, 360 h, 250 g/ha, post-emergence, 15 DAA, visual assessment (100%=total damage, 0%=no damage), read-out: Post-emergence herbicidal activity (percentage phytotoxicity) LOLPE POST
[28] = pre-emergence, 480 h, 250 g/ha, pre-emergence, 20 DAA, visual assessment (100%=total damage, 0%=no damage), read-out: Pre-emergence herbicidal activity (percentage phytotoxicity) LOLPE PRE

Cc1cc(-c2ncc(Cl)cc2F)cc(C)c1C1C(=O)CC(CC(=O)NCc2cccc(Cl)c2)C1=O (stereo not drawn) [Compound A117]
pest or weed control at 250 g/ha [1, 5]: 90% | pest or weed control at 250 g/ha [1, 6]: 70% | pest or weed control at 250 g/ha [2, 7]: 100% | pest or weed control at 250 g/ha [2, 8]: 70% | pest or weed control at 250 g/ha [3, 9]: 100% | pest or weed control at 250 g/ha [3, 10]: 100% | pest or weed control at 250 g/ha [4, 11]: 100% | pest or weed control at 250 g/ha [4, 12]: 90%

CCN(C)C(=O)CC1CC(=O)C(c2c(C)cc(C)cc2C)C1=O (stereo not drawn) [Compound A160]
pest or weed control at 250 g/ha [1, 5]: 70% | pest or weed control at 250 g/ha [1, 6]: 70% | pest or weed control at 250 g/ha [2, 7]: 90% | pest or weed control at 250 g/ha [2, 8]: 80% | pest or weed control at 250 g/ha [3, 9]: 90% | pest or weed control at 250 g/ha [3, 10]: 100% | pest or weed control at 250 g/ha [4, 11]: 100% | pest or weed control at 250 g/ha [4, 12]: 100%

CCCCCCCNC(=O)CC1CC(=O)C(c2c(C)cc(C)cc2C)C1=O (stereo not drawn) [Compound A178]
pest or weed control at 250 g/ha [1, 13]: 70% | pest or weed control at 250 g/ha [1, 14]: 20% | pest or weed control at 250 g/ha [2, 15]: 70% | pest or weed control at 250 g/ha [2, 16]: 0% | pest or weed control at 250 g/ha [3, 17]: 40% | pest or weed control at 250 g/ha [3, 18]: 80% | pest or weed control at 250 g/ha [4, 19]: 70% | pest or weed control at 250 g/ha [4, 20]: 80%

Cc1cc(Br)cc(C)c1C1C(=O)CC(CC(=O)NCC2CC2C(F)F)C1=O (stereo not drawn) [Compound B142]
pest or weed control at 250 g/ha [1, 21]: 90% | pest or weed control at 250 g/ha [1, 22]: 90% | pest or weed control at 250 g/ha [2, 23]: 90% | pest or weed control at 250 g/ha [2, 24]: 70% | pest or weed control at 250 g/ha [3, 25]: 80% | pest or weed control at 250 g/ha [3, 26]: 0% | pest or weed control at 250 g/ha [4, 27]: 90% | pest or weed control at 250 g/ha [4, 28]: 70%

CCCN(CC)C(=O)CC1CC(=O)C(c2c(C)cc(C)cc2C)C1=O (stereo not drawn) [Compound A171]
pest or weed control at 250 g/ha [1, 13]: 70% | pest or weed control at 250 g/ha [1, 14]: 60% | pest or weed control at 250 g/ha [2, 15]: 70% | pest or weed control at 250 g/ha [2, 16]: 20% | pest or weed control at 250 g/ha [3, 17]: 70% | pest or weed control at 250 g/ha [3, 18]: 80% | pest or weed control at 250 g/ha [4, 19]: 80% | pest or weed control at 250 g/ha [4, 20]: 70%

Cc1cc(C)c(C2C(=O)CC(CC(=O)NCC=C(Cl)Cl)C2=O)c(C)c1 (stereo not drawn) [Compound B159]
pest or weed control at 250 g/ha [1, 21]: 70% | pest or weed control at 250 g/ha [1, 22]: 80% | pest or weed control at 250 g/ha [2, 23]: 90% | pest or weed control at 250 g/ha [2, 24]: 0% | pest or weed control at 250 g/ha [3, 25]: 80% | pest or weed control at 250 g/ha [3, 26]: 90% | pest or weed control at 250 g/ha [4, 27]: 90% | pest or weed control at 250 g/ha [4, 28]: 90%

C=Cc1cc(-c2ncc(F)cn2)cc(C)c1C1C(=O)CC(CC(=O)NC(C)(C)C)C1=O (stereo not drawn) [Compound B404]
pest or weed control at 250 g/ha ([1]; post-emergence, 360 h, Rate 250 g/ha, post-emergence, visual assessment 15 DAA, 100%=total damage, 0%=no damage, read-out: Post-emergence herbicidal activity (percentage phytotoxicity) ALOMY POST): 90% | pest or weed control at 250 g/ha ([1]; pre-emergence, 480 h, Rate 250 g/ha, pre-emergence, visual assessment 20 DAA, 100%=total damage, 0%=no damage, read-out: Pre-emergence herbicidal activity (percentage phytotoxicity) ALOMY PRE): 80% | pest or weed control at 250 g/ha ([2]; post-emergence, 360 h, Rate 250 g/ha, post-emergence, visual assessment 15 DAA, 100%=total damage, 0%=no damage, read-out: Post-emergence herbicidal activity (percentage phytotoxicity) AVEFA POST): 100% | pest or weed control at 250 g/ha ([2]; pre-emergence, 480 h, Rate 250 g/ha, pre-emergence, visual assessment 20 DAA, 100%=total damage, 0%=no damage, read-out: Pre-emergence herbicidal activity (percentage phytotoxicity) AVEFA PRE): 70% | pest or weed control at 250 g/ha ([3]; post-emergence, 360 h, Rate 250 g/ha, post-emergence, visual assessment 15 DAA, 100%=total damage, 0%=no damage, read-out: Post-emergence herbicidal activity (percentage phytotoxicity) ECHCG POST): 100% | pest or weed control at 250 g/ha ([3]; pre-emergence, 480 h, Rate 250 g/ha, pre-emergence, visual assessment 20 DAA, 100%=total damage, 0%=no damage, read-out: Pre-emergence herbicidal activity (percentage phytotoxicity) ECHCG PRE): 90% | pest or weed control at 250 g/ha ([4]; post-emergence, 360 h, Rate 250 g/ha, post-emergence, visual assessment 15 DAA, 100%=total damage, 0%=no damage, read-out: Post-emergence herbicidal activity (percentage phytotoxicity) LOLPE POST): 100% | pest or weed control at 250 g/ha ([4]; pre-emergence, 480 h, Rate 250 g/ha, pre-emergence, visual assessment 20 DAA, 100%=total damage, 0%=no damage, read-out: Pre-emergence herbicidal activity (percentage phytotoxicity) LOLPE PRE): 80%

CCCCCNC(=O)CC1CC(=O)C(c2c(C)cc(C)cc2C)C1=O (stereo not drawn) [Compound A177]
pest or weed control at 250 g/ha [1, 13]: 80% | pest or weed control at 250 g/ha [1, 14]: 100% | pest or weed control at 250 g/ha [2, 15]: 80% | pest or weed control at 250 g/ha [2, 16]: 60% | pest or weed control at 250 g/ha [3, 17]: 90% | pest or weed control at 250 g/ha [3, 18]: 90% | pest or weed control at 250 g/ha [4, 19]: 80% | pest or weed control at 250 g/ha [4, 20]: 100%

Cc1cccc(CNC(=O)CC2CC(=O)C(c3c(C)cc(C)cc3C)C2=O)c1 (stereo not drawn) [Compound A88]
pest or weed control at 250 g/ha [1, 5]: 70% | pest or weed control at 250 g/ha [1, 6]: 90% | pest or weed control at 250 g/ha [2, 7]: 10% | pest or weed control at 250 g/ha [2, 8]: 0% | pest or weed control at 250 g/ha [3, 9]: 80% | pest or weed control at 250 g/ha [3, 10]: 70% | pest or weed control at 250 g/ha [4, 11]: 100% | pest or weed control at 250 g/ha [4, 12]: 100%
